The numbers were not newly measured in patent US20230330191A1, “METHODS OF STIMULATING BONE GROWTH WITH ABALOPARATIDE AND DENOSUMAB” (Radius Health, Inc., priority 2020, published 2023), which cites them from elsewhere.

The conditions of series [1]: in vivo.
In series [2] the test system is ovariectomy-induced osteopenia animal models.
The conditions of series [3]: in vivo. The source holds these as a separate data set.
Another series has as its system RANKL:OPG ratio. The conditions noted are these: Makino, CTI 2018.

Regarding `CC[C@H](C)[C@H](NC(=O)[C@H](CCC(=O)O)NC(=O)[C@H](CO)NC(=O)[C@@H](NC(=O)[C@@H](N)CO)C(C)C)C(=O)N[C@@H](CCC(N)=O)C(=O)N[C@@H](CC(C)C)C(=O)N[C@@H](CCSC)C(=O)N[C@@H](Cc1cnc[nH]1)C(=O)N[C@@H](CC(N)=O)C(=O)N[C@@H](CC(C)C)C(=O)NCC(=O)N[C@@H](CCCCN)C(=O)N[C@@H](Cc1cnc[nH]1)C(=O)N[C@@H](CC(C)C)C(=O)N[C@@H](CC(N)=O)C(=O)N[C@@H](CO)C(=O)N[C@@H](CCSC)C(=O)N[C@@H](CCC(=O)O)C(=O)N[C@@H](CCCN=C(N)N)C(=O)N[C@H](C(=O)N[C@@H](CCC(=O)O)C(=O)N[C@@H](Cc1c[nH]c2ccccc12)C(=O)N[C@@H](CC(C)C)C(=O)N[C@@H](CCCN=C(N)N)C(=O)N[C@@H](CCCCN)C(=O)N[C@@H](CCCCN)C(=O)N[C@@H](CC(C)C)C(=O)N[C@@H](CCC(N)=O)C(=O)N[C@@H](CC(=O)O)C(=O)N[C@H](C(=O)N[C@@H](Cc1cnc[nH]1)C(=O)N[C@@H](CC(N)=O)C(=O)N[C@@H](Cc1ccccc1)C(=O)O)C(C)C)C(C)C` [teriparatide], the “total hip BMD” value with women (2 years of teriparatide after 2 years of denosumab, versus mean BMD at end of denosumab treatment (Leder, Lancet 2015)) is on record as “remains below the mean BMD”. Also, in the series with women (switching from denosumab to teriparatide), the “BMD in the hip and femoral neck” value is reported as “substantial BMD loss”.
As for “Denosumab: fully human monoclonal IgG antibody with affinity and specificity for human receptor activator of nuclear factor kappa-B ligand (RANKL)”, the “effects of denosumab withdrawal on bone” value in the series with women (after withdrawal (Cummings JBMR 2017)) was “dramatic increased bone remodeling, rapid prominent bone loss, and multiple vertebral fractures”.
On to “[Glu22,25, Leu23,28,31, Aib29, Lys26,30]hPTHrP(1-34)NH2 [abaloparatide]”, for which, in series [1], the “incidence of the most common adverse reactions (hypercalciuria, dizziness, nausea, headache, palpitations, fatigue, upper abdominal pain, vertigo)” value is reported as > 2%. In addition, the “bone loss (bone anabolic activity)” value in series [2] is listed as “complete reversal of bone loss”. Also, in series [3], the “increases in BMD compared with cathepsin K inhibitor drugs or PTH-like drugs such as teriparatide” value was “substantially faster and greater”; the “potential to induce hypercalcemia compared to teriparatide” value was “lower potential to induce hypercalcemia”. For the same compound, the “RANKL and OPG expression, RANKL:OPG ratio” value with RANKL:OPG ratio is “upregulates RANKL and reduces OPG, increasing the RANKL:OPG ratio”.
